Measurements taken from PubChem BioAssay (NCI).
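1) Cells in 96-well plates. 2) Compound, 48 h, 5 concentrations. 3) Linear interpolation between surrounding doses. 4) Unreached endpoint = highest concentration. GI50 marks 50% less growth. TGI is the concentration that stops growth completely.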

What was measured:
Test in all cases: growth of human tumour cells (NCI), 48 h
[1] = test system: HS 578T breast
[2] = test system: MDA-MB-435
[3] = test system: SN12C renal
[4] = test system: CCRF-CEM leukemia
[5] = test system: SF-268 CNS
[6] = test system: OVCAR-3 ovarian
[7] = test system: NCI/ADR-RES ovarian
[8] = test system: A549 NSCLC
[9] = test system: CAKI-1 renal
[10] = test system: ACHN renal

Compound	GI50 [1]	TGI [1]	GI50 [2]	TGI [2]	GI50 [3]	TGI [3]	GI50 [4]	TGI [4]	GI50 [5]	TGI [5]	GI50 [6]	TGI [6]	GI50 [7]	TGI [7]	GI50 [8]	TGI [8]	GI50 [9]	TGI [9]	GI50 [10]	TGI [10]
CCOc1ccc2nc(S/C(=C/C=C(C#N)C#N)c3ccc(C)cc3)sc2c1	32.2 µM	88.4 µM	20.7 µM	59.4 µM	18.1 µM	46.4 µM	2.05 µM	5.52 µM	30 µM	> 100 µM	32.6 µM	> 100 µM	24 µM	50.7 µM	46.7 µM	> 100 µM	17.1 µM	54.6 µM	18.4 µM	36.9 µM
O=c1c2ccccc2sc2cccc(NCCCN3CCN(CCCNc4cccc5sc6ccccc6c(=O)c45)CC3)c12	–	> 100 µM	–	> 100 µM	–	> 100 µM	–	> 100 µM	–	> 100 µM	–	> 100 µM	–	> 100 µM	–	> 100 µM	–	> 100 µM	–	> 100 µM
COc1ccncc1C#Cc1cncc(C(=O)Nc2ccc(CN3CCN(C)CC3)c(C(F)(F)F)c2)c1	7.75 µM	52.5 µM	15 µM	> 100 µM	16.8 µM	> 100 µM	28.4 µM	> 100 µM	17.5 µM	66.2 µM	21.6 µM	89.7 µM	33.4 µM	> 100 µM	27.4 µM	> 100 µM	22.6 µM	> 100 µM	19.3 µM	> 100 µM
C=CCCCCCCCCCCC1(O)C=CC2=[N+](CCCCCN=C(N)N)CCCN21 (centres undefined)	3.82 µM	13.1 µM	12.3 µM	31.1 µM	–	11.3 µM	8.57 µM	40.3 µM	7.7 µM	26.7 µM	13 µM	36.8 µM	22.2 µM	85.6 µM	5.06 µM	24.6 µM	3.22 µM	14.1 µM	11.5 µM	24.5 µM
COc1ccccc1N1CCN(CCCn2c(=O)c3c(OC)nc(C)cc3c(=O)n2-c2ccccc2)CC1	> 100 µM	> 100 µM	> 100 µM	> 100 µM	> 100 µM	> 100 µM	> 100 µM	> 100 µM	> 100 µM	> 100 µM	> 100 µM	> 100 µM	> 100 µM	> 100 µM	> 100 µM	> 100 µM	> 100 µM	> 100 µM	> 100 µM	> 100 µM
COC12C=C/C(=C(/C(=O)OCc3ccncc3)C(=O)CCCCCCCCC3(OC)C=C/C(=C(/C(=O)OCc4ccncc4)C(=O)CCCCCCCC1)O3)O2	1.75 µM	15.4 µM	0.121 µM	0.312 µM	0.471 µM	3.89 µM	0.0515 µM	2.29 µM	1.04 µM	3.28 µM	0.207 µM	0.93 µM	0.774 µM	3.93 µM	0.979 µM	2.8 µM	1.12 µM	2.85 µM	0.217 µM	1.14 µM
Cn1cnc([N+](=O)[O-])c1S(=O)(=O)Oc1ccccc1	24.6 µM	> 80.5 µM	9.84 µM	31.9 µM	21.5 µM	> 71.7 µM	3.75 µM	> 100 µM	16.5 µM	48.2 µM	2.14 µM	4.3 µM	21.7 µM	> 65.8 µM	38.1 µM	> 100 µM	1.66 µM	3.41 µM	1.8 µM	3.37 µM
